Test results from PMC9988962 (Scientific Reports, 2023).
≈ marks a conversion by molar mass, not a printed value. Residues, ends and D or L forms follow the SMILES beside them. *: point of attachment. NH(β-GlcNAc) = CC(=O)N[C@@H]1[C@@H](O)[C@H](O)[C@@H](CO)O[C@H]1N*

What was measured:
[1] = test system: Acinetobacter baumannii ATCC 17,978; experiment: microbe, parasite or virus in culture
Procedure: (§1) Starting from a peptide stock solution, two-fold serial dilutions were sequentially carried out, accordingly to the broth microdilution method. Following over-night incubation, MIC100 values were determined as the lowest peptide concentration needed for no visible bacterial growth.

[2] = test system: Bacillus globigii TNO BMO13; experiment: microbe, parasite or virus in culture
Procedure: as §1

Bacillus subtilis 6633 = experiment: microbe, parasite or virus in culture
Procedure: as §1

[3] = test system: Escherichia coli ATCC 25,922; experiment: microbe, parasite or virus in culture
Procedure: as §1

[4] = test system: Klebsiella pneumoniae ATCC 700,603; experiment: microbe, parasite or virus in culture
Procedure: as §1

MRSA WKZ-2 = experiment: microbe, parasite or virus in culture
Procedure: as §1

[5] = test system: Pseudomonas aeruginosa 01; experiment: microbe, parasite or virus in culture
Procedure: as §1

[6] = test system: Staphylococcus aureus ATCC 29,213; experiment: microbe, parasite or virus in culture
Procedure: as §1

[7] = test system: Escherichia coli ATCC 25,922; settings: E. coli ATCC 25,922; peptide incubated in water without proteases or serum
Procedure: as §1
(§2) To analyze the stability of the peptides to the proteases, 100 μM of LL-III and glycosylated LL-III were incubated with 100 nM of α-chymotrypsin or pepsin at 37 °C for 15 min and then antimicrobial activity were assayed as reported above. The peptide solution without proteases was used as the control group.
(§3) For comparison, the MIC values of untreated peptides (incubated in water) were also determined.

[8] = test system: Escherichia coli ATCC 25,922; settings: for MIC after treatment with pepsin / MIC after treatment with α-chymotrypsin: E. coli ATCC 25,922, 37 °C, 15 min, then MIC; for MIC after treatment with pepsin: 100 μM peptide incubated with 100 nM pepsin; for MIC after treatment with α-chymotrypsin: 100 μM peptide incubated with 100 nM α-chymotrypsin
Procedure: as §1, §2

[9] = test system: Escherichia coli ATCC 25,922; settings: E. coli ATCC 25,922; 200 μM peptide solution with fetal bovine serum 1:1 (v/v), 24 h, 37 °C, then MIC
Procedure: as §1, §3

[10] = test system: BALB/c 3T3 cells (normal murine fibroblasts); settings: BALB/c 3T3, two-fold dilutions of peptide, 24 h, 37 °C, 5% CO2, three independent experiments
Procedure: In brief, 5·10^3 cells were seeded on a 96-well plate and after 16 h treated with increasing concentrations of peptides for 24 h at 37 °C and 5% CO2. Cell viability was analyzed by performing the (3-(4,5-dimethylthiazol-2-yl)-2,5 diphenyltetrazolium bromide) reduction inhibition assay (MTT assay)[42].
Normal and transformed murine fibroblasts, 3T3 and SVT2, were treated with increasing concentration of the two peptides. After 24 h of incubation at 37 °C and 5% CO2, cells mitochondrial activity was measured performing MTT assay.

[11] = Acinetobacter baumannii ATCC 17,978, 1 × 10^6 CFU/mL, 0.5X Nutrient Broth, over-night, MIC100
[12] = Bacillus globigii TNO BMO13, 1 × 10^6 CFU/mL, 0.5X Nutrient Broth, over-night, MIC100
[13] = Bacillus subtilis 6633, 1 × 10^6 CFU/mL, 0.5X Nutrient Broth, over-night, MIC100
[14] = Escherichia coli ATCC 25,922, 1 × 10^6 CFU/mL, 0.5X Nutrient Broth, over-night, MIC100
[15] = Klebsiella pneumoniae ATCC 700,603, 1 × 10^6 CFU/mL, 0.5X Nutrient Broth, over-night, MIC100
[16] = MRSA WKZ-2, 1 × 10^6 CFU/mL, 0.5X Nutrient Broth, over-night, MIC100
[17] = Pseudomonas aeruginosa 01, 1 × 10^6 CFU/mL, 0.5X Nutrient Broth, over-night, MIC100
[18] = Staphylococcus aureus ATCC 29,213, 1 × 10^6 CFU/mL, 0.5X Nutrient Broth, over-night, MIC100
[19] = from MIC values against E. coli after 15 min at 37 °C with protease

Row | Compound | MIC [1, 11] | MIC [2, 12] | MIC (Bacillus subtilis 6633; [13]) | MIC [3, 14] | MIC [4, 15] | MIC (MRSA WKZ-2; [16]) | MIC [5, 17] | MIC [6, 18] | MIC after treatment in water (control) [7] | MIC after treatment with pepsin [8] | MIC after treatment with α-chymotrypsin [8] | MIC after treatment with 50% FBS [9] | further results
1 | O=C(O)c1cn(C2CC2)c2cc(N3CCNCC3)c(F)cc2c1=O [Ciprofloxacin] | – | – | – | – | – | – | – | – | – | – | – | – | MIC ([1]; Acinetobacter baumannii): 0.15 µM (≈ 0.0497 µg/mL); MIC ([2]; Bacillus subtilis, TNOBMO13): 0.3 µM (≈ 0.0994 µg/mL); MIC (Bacillus subtilis 6633; Bacillus subtilis, 6633): 0.15 µM (≈ 0.0497 µg/mL); MIC ([3]; Escherichia coli): 0.15 µM (≈ 0.0497 µg/mL); MIC ([4]; Klebsiella pneumoniae): 1.2 µM (≈ 0.398 µg/mL); MIC (MRSA WKZ-2; Staphylococcus aureus, MRSA): 0.3 µM (≈ 0.0994 µg/mL); MIC ([5]; Pseudomonas aeruginosa, 01): 0.3 µM (≈ 0.0994 µg/mL); MIC ([6]; Staphylococcus aureus, ATCC29): 0.6 µM (≈ 0.199 µg/mL)
2 | CC[C@H](C)[C@H](NC(=O)[C@H](CCCCN)NC(=O)[C@H](CCCCN)NC(=O)[C@H](Cc1c[nH]c2ccccc12)NC(=O)[C@H](CC(N)=O)NC(=O)[C@@H](N)C(C)C)C(=O)N[C@@H](CC(C)C)C(=O)NCC(=O)N[C@@H](CCCCN)C(=O)N[C@H](C(=O)N[C@H](C(=O)N[C@@H](CCCCN)C(=O)N[C@H](C(=O)N[C@H](C(=O)N[C@@H](CCCCN)C(N)=O)C(C)C)C(C)C)[C@@H](C)CC)[C@@H](C)CC [LL-III, Lasioglossin III] (H-VNWKKILGKIIKVVK-NH2) | 3.12 µM (≈ 5.51 µg/mL) | 1.56 µM (≈ 2.75 µg/mL) | 1.56 µM (≈ 2.75 µg/mL) | 3.12 µM (≈ 5.51 µg/mL) | 3.12 µM (≈ 5.51 µg/mL) | 3.12 µM (≈ 5.51 µg/mL) | 1.56 µM (≈ 2.75 µg/mL) | 1.56 µM (≈ 2.75 µg/mL) | 3.12 µM (≈ 5.51 µg/mL) | 12.5 µM | 25 µM | 6.25 µM | –
3 | CC[C@H](C)[C@H](NC(=O)[C@H](CCCCN)NC(=O)[C@H](CCCCN)NC(=O)[C@H](Cc1c[nH]c2ccccc12)NC(=O)[C@H](CC(=O)N[C@@H]1O[C@H](CO)[C@@H](O)[C@H](O)[C@H]1NC(C)=O)NC(=O)[C@@H](N)C(C)C)C(=O)N[C@@H](CC(C)C)C(=O)NCC(=O)N[C@@H](CCCCN)C(=O)N[C@H](C(=O)N[C@H](C(=O)N[C@@H](CCCCN)C(=O)N[C@H](C(=O)N[C@H](C(=O)N[C@@H](CCCCN)C(N)=O)C(C)C)C(C)C)[C@@H](C)CC)[C@@H](C)CC [g-LL-III] (H-VD(NH(β-GlcNAc))WKKILGKIIKVVK-NH2) | 3.12 µM (≈ 6.14 µg/mL) | 1.56 µM (≈ 3.07 µg/mL) | 1.56 µM (≈ 3.07 µg/mL) | 3.12 µM (≈ 6.14 µg/mL) | 3.12 µM (≈ 6.14 µg/mL) | 3.12 µM (≈ 6.14 µg/mL) | 3.12 µM (≈ 6.14 µg/mL) | 1.56 µM (≈ 3.07 µg/mL) | 3.12 µM (≈ 6.14 µg/mL) | 6.25 µM | 6.25 µM | 3.12 µM | reduction of susceptibility to pepsin versus parental peptide [8, 19]: 2 times; reduction of susceptibility to α-chymotrypsin versus parental peptide [8, 19]: 4 times; cell viability (MTT), g-LL-III compared with LL-III [10]: no significant differences
